Read-outs that look alike come from different tables or passages of the source.
Legend:
human DNA polymerase δ = experiment: Human DNA polymerase inhibition, delta; assay type: biochemical; conditions: Pol δ, "activated" DNA; for IC50: read-out: ID50 (the source's name)
From the text: (§1) Viral DNA polymerases (HSV-1, HSV-2, EBV) were purified by previously published methods (Derce, D. K. F. Bastow, and Y. C. Cheng (1982) J. Boil. Chem. 257:10251-10260; Ostrander, M., and Y. C. Cheng (1980) Biochim. Biophys. Acta 609:232-245; Tan, R. S., A. Datta. and Y. C. Cheng (1982) J. Virol. 44:893-899). These procedures generally included sequential chromatography on DEAE-cellulose. HIV reverse transcriptase was purified by antibody affinity column chromatography as descrbed (Starnes. M. C. and Y. C. Cheng (1989) J. Biol. Chem. 264:7073-7077). The purified enzymes were dialyzed against and stored in 50 mM Tris-HCl (pH 7.5) containing 1 mM each of DTT, EDTA and PMSF plus 30% glycerol. Mammalian DNA polymerases alpha, beta, gamma, and delta were partially purified from K562 celles (chronic myelogenous leukemia tissue culture line). Briefly, washed cell pellets were extracted and passed throgh DEAE-cellulose in the presence of 300 mM KPO4 (pH 7.5) as previously described (Starnes, M. C., and Y. C. Cheng (1987) J. Biol. Chem 282:988-981) to remove DNA. The column flow-through fractions were dialyzed against buffer which contained 50 mM Tris-HCl (pH 7.5), and fractionated on a single-stranded DNA-cellulose column with a 0-1M KCl gradient.
(§2) In accordance with the teaching of the present invention similar enzyme inhibition assays were also conducted with respect to mammalian enzymes, more particularly, human DNA polymerase.

HSV-2 DNA polymerase = target: T1, HSV-2 DNA polymerase (Human herpesvirus 2, UniProt P89453); experiment: Viral polymerase inhibition, HSV-2; assay type: biochemical
T1 construct: made in house
From the text: as §1
Standard assays were run at 37° C. and contained: 50 mM Tris, pH b 8.0, 0.5 mM DTT, 8 mM MgCl2, 100 μg/mL BSA, 150 μg/mL gapped calf thymus DNA, 100 μM each dATP, dCTP, dGTP, 10 .parallel.M [^3 H]-dTTP, and 1-5 .parallel.L enzyme in a final volume of 50 .parallel.L. Modified assays for pH dependence inhibition studies with PFA (1) and α--oxo phosphonates (4 and 5) contained 50 mM Hepes, pH 8.2-6.5, 8 mM MgCl2, 100 mM KCl, 100 μg/ml BSA, 0.5 A260 units/ml of poly(rA).(dT)10, 100 μM [^3 H]dTTP, and 1.5 .parallel.L enzyme in a final volume of 50 μL. Samples were processed as described above.

HSV-1 DNA polymerase = target: T2, HSV-1 DNA polymerase (Human herpesvirus 1, UniProt P04293); experiment: Viral polymerase inhibition, HSV-1; assay type: biochemical
T2 construct: made in house
From the text: as §1, with “gradient. […]” for “gradient.”

uninfected H9 cells = experiment: Toxicity: cell density of uninfected H9 cultures; assay type: cell-based; conditions: 3 days
Experimental: (§3) In addition to testing the activity of TPFA against HIV enzyme, the activity against the virus itself was also determined in accordance with the following protocol. The experimental protocol involved incubatino of H9 lymphocytes (3.5×10^6 cells/ml) in the presence or absence of HIV-1 (HTLV-IIIB) for one hour at 37° C. Cells were washed thoroughly to remove unabsorbed virions and re-suspended at 4×10^5 cells/ml in culture medium. Aliquots (1 ml) were placed in wells of 24 well culture plates containing any equal volume of test compound (diluted in culture medium). After incubation for three days at 37° C., cell density of uninfected cultures was determined to assess toxicity of the test compound. A p24 antigen capture was used to determine the level of HIV infection in HIV treated cultures. The ability of test compounds to inhibit HIV replication was measured at different concentrations relative to infected, untreated cultures. Test compounds were considered to be active if p24 levels were <70% of infected, untreated cultures. Cytotoxicity in uninfect4ed H9 cells was not detected.

[1] = Toxicity: cell density of uninfected H9 cultures; assay type: cell-based; conditions: human, h9 cells, 3 days, read-out: Cell Survival (%)
Experimental: as §3

human DNA polymerase β = target: T3, human DNA polymerase β (Homo sapiens, UniProt P06746); experiment: Human DNA polymerase inhibition, beta; assay type: biochemical; conditions: for remaining activity at 100 µM: read-out: % Control at 100 μM ± S.D.
T3 construct: Mammalian DNA polymerases alpha, beta, gamma, and delta were partially purified from K562 celles; endogenous in cells; host or cells: K562 (chronic myelogenous leukemia tissue culture line)
From the text: as §1, §2

HV-6 polymerase = HV-6 polymerase (Human herpesvirus 6A, UniProt P28857); experiment: Viral polymerase inhibition, HV-6; assay type: biochemical, Herpes Virus 6
HSV-1 = conditions: reported by Hutchinson et al.; cited from earlier work
HIV-1 (HTLV-IIIB) = experiment: HIV inhibition in cell culture, p24 antigen capture assay in H9 lymphocytes; assay type: cell-based
Experimental: as §3

[2] = Human immunodeficiency virus 1, IIIB, H9, 72 h, read-out: p24 Ave (%)

Sequence of HV-6 polymerase (P28857 whole entry): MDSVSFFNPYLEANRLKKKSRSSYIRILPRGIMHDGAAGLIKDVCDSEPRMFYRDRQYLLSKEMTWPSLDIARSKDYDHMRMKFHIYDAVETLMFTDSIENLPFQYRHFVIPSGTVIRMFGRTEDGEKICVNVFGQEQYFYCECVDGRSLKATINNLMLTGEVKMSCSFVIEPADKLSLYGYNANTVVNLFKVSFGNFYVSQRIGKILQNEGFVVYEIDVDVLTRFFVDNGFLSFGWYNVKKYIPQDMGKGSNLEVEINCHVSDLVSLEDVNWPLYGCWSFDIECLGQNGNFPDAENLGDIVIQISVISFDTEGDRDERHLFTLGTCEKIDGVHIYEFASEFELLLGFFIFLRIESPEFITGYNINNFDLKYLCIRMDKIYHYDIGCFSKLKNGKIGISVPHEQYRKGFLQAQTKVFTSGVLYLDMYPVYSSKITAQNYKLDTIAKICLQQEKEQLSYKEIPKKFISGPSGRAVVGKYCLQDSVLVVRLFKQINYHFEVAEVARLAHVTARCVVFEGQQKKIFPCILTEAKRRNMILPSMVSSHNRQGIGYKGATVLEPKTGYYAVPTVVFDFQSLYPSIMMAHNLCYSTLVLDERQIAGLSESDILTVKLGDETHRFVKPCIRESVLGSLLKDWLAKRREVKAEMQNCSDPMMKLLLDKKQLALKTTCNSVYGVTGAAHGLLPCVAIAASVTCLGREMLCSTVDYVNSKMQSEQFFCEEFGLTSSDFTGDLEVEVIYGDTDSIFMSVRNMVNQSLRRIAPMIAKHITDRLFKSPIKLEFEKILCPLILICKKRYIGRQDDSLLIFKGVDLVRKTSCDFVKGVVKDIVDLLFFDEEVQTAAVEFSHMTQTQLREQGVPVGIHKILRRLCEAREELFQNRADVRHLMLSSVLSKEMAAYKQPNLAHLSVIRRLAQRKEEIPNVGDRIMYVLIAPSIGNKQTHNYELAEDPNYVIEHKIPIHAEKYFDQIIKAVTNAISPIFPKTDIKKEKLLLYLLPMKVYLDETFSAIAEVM
T1 sequence (P89453 whole entry): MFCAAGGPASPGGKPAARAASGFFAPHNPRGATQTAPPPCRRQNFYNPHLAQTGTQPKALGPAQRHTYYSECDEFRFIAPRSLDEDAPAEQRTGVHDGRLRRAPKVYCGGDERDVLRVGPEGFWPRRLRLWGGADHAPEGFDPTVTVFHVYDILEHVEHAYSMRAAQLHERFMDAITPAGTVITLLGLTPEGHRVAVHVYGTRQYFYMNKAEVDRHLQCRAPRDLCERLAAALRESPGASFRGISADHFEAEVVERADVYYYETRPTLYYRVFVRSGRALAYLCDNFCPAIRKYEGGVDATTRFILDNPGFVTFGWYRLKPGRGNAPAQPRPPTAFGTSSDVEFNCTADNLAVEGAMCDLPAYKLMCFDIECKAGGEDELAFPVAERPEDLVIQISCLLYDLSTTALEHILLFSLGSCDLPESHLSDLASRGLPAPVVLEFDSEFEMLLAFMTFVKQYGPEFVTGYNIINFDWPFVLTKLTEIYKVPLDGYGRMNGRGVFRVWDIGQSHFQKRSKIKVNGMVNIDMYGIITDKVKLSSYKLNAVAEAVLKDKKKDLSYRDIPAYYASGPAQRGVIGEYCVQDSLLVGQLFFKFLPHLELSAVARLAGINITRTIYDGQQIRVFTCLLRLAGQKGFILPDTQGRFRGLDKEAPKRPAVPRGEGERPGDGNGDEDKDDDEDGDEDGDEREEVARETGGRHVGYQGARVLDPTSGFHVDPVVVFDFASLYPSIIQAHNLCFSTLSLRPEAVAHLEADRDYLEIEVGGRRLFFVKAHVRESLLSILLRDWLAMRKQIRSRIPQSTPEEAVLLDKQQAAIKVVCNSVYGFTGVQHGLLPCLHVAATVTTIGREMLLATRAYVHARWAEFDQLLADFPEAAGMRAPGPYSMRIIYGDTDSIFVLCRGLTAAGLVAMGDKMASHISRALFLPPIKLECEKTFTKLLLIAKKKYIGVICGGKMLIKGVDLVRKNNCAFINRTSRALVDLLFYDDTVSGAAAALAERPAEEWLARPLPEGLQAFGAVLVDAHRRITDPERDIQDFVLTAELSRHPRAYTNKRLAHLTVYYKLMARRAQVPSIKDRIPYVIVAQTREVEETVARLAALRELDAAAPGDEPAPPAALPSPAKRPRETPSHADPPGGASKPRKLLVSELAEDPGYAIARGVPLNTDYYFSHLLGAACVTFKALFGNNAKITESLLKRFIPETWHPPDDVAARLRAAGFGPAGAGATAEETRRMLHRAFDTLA
T2 sequence (P04293 whole entry): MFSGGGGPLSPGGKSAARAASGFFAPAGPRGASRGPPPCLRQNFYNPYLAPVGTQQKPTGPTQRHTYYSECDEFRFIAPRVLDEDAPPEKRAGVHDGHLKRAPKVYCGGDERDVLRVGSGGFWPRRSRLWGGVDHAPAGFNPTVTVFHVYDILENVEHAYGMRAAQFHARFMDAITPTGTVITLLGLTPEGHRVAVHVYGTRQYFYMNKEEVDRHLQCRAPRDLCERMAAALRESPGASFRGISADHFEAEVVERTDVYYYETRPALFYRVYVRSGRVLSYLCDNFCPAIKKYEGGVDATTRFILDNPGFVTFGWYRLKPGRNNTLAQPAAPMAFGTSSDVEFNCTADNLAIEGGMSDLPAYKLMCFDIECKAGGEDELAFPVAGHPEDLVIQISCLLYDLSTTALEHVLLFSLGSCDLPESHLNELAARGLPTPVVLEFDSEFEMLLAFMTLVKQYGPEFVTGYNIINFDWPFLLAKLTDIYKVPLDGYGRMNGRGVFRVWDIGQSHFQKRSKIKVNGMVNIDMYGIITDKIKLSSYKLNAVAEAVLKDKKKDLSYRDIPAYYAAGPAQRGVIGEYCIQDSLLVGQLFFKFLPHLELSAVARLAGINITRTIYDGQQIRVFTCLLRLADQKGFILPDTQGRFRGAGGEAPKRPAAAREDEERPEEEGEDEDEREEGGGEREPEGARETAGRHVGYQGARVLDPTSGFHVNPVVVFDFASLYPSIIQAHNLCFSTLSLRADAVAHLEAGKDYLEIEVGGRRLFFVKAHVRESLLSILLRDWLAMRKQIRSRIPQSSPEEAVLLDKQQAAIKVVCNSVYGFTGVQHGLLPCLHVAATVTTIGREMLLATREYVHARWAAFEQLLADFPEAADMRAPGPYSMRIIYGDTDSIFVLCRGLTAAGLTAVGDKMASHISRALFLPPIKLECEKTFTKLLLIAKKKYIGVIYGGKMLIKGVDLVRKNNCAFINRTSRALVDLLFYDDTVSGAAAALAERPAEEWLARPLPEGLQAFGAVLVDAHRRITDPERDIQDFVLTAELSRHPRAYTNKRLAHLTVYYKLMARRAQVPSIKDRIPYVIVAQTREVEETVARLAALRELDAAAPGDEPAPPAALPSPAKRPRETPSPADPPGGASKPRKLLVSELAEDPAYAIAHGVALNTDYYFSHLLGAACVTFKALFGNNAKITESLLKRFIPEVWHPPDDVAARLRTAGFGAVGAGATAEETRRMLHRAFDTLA

For `O=C(O)P(=O)(O)O` [PFA, phosphonoformic acid], the “% Control at 100 μM ± S.D.” value (human DNA polymerase δ) was 36 ± 3%, the IC50 (human DNA polymerase δ) was 71 µM and the IC50 (HSV-2 DNA polymerase; HSV-2, "activated" DNA, read-out: ID50 (the source's name)) was 0.7 µM. The IC50 (HSV-1 DNA polymerase; HSV-1, "activated" DNA, read-out: ID50 (the source's name)) was 0.7 µM, the Toxicity (uninfected H9 cells; drug conc. 1.9 μg/mL) was “non-T” and the Toxicity (uninfected H9 cells; drug conc. 7.5 μg/mL) was “non-T”. The Toxicity (uninfected H9 cells; drug conc. 30 μg/mL) was “non-T”, the Toxicity (uninfected H9 cells; drug conc. 120 μg/mL) was “non-T” and the viability at 72 h ([1]; drug conc. 1.9 μg/mL) was 98%. For the same compound, the viability at 72 h ([1]; drug conc. 7.5 μg/mL) was 96%, the viability at 72 h ([1]; drug conc. 30 μg/mL) was 92% and the viability at 72 h ([1]; drug conc. 120 μg/mL) was 102%. The remaining activity at 100 µM (human DNA polymerase β; Pol β, 100 μM, "activated" DNA) was 89 ± 8%, the IC50 (human DNA polymerase β; Pol β, "activated" DNA, read-out: ID50 (the source's name)) was greater than 100 µM and the IC50 (HV-6 polymerase; HV-6, "activated" DNA, read-out: ID50 (the source's name)) was 1 µM. The “relative ID50 values with respect to HSV-1” value (HSV-1) was 12, the activity at 1.9 µg/mL (HIV-1 (HTLV-IIIB); Human immunodeficiency virus 1, IIIB, H9, 72 h, drug conc. 1.9 μg/mL, % of infected untreated control p24, read-out: p24 Ave (%)) was 88% and the activity at 7.5 µg/mL (HIV-1 (HTLV-IIIB); Human immunodeficiency virus 1, IIIB, H9, 72 h, drug conc. 7.5 μg/mL, % of infected untreated control p24, read-out: p24 Ave (%)) was 35%. For the same compound, the activity at 30 µg/mL (HIV-1 (HTLV-IIIB); Human immunodeficiency virus 1, IIIB, H9, 72 h, drug conc. 30 μg/mL, % of infected untreated control p24, read-out: p24 Ave (%)) was 10%, the activity at 120 µg/mL (HIV-1 (HTLV-IIIB); Human immunodeficiency virus 1, IIIB, H9, 72 h, drug conc. 120 μg/mL, % of infected untreated control p24, read-out: p24 Ave (%)) was -2% and the “Inhibition Score” value (HIV-1 (HTLV-IIIB); drug conc. 7.5 μg/mL) was “** (**25-49% control p24)”. The “Inhibition Score” value (HIV-1 (HTLV-IIIB); drug conc. 30 μg/mL) was “*** (***<25% control p24)” and the “Inhibition Score” value (HIV-1 (HTLV-IIIB); drug conc. 120 μg/mL) was “*** (***<25% control p24)”.

In the case of `O=C(O)P(O)(O)=S` [TPFA, thiophosphonoformic acid], the “% Control at 100 μM ± S.D.” value (human DNA polymerase δ) is reported as 69 ± 6%, the IC50 (human DNA polymerase δ) is reported as greater than 100 µM and the IC50 (HSV-2 DNA polymerase) is reported as 11.3 µM. For the same compound, the “effectiveness of TPFA relative to PFA” value (HSV-2 DNA polymerase; HSV-2 enzyme, ratio of ID50 values of Table I) was “fifteen to twenty times less effective”, the IC50 (HSV-1 DNA polymerase) was 11.8 µM and the Toxicity (uninfected H9 cells; drug conc. 0.1 μg/mL) was “non-T”. For the same compound, the Toxicity (uninfected H9 cells; drug conc. 0.5 μg/mL) was “non-T”, the Toxicity (uninfected H9 cells; drug conc. 2 μg/mL) was “non-T” and the Toxicity (uninfected H9 cells; drug conc. 10 μg/mL) was “non-T”. For the same compound, the Toxicity (uninfected H9 cells; drug conc. 50 μg/mL) was “non-T”, the Toxicity (uninfected H9 cells; drug conc. 200 μg/mL) was “non-T” and the viability at 72 h ([1]; drug conc. 0.1 μg/mL) was 113%. It also gave a viability at 72 h ([1]; drug conc. 0.5 μg/mL) of 113%, a viability at 72 h ([1]; drug conc. 2 μg/mL) of 110% and a viability at 72 h ([1]; drug conc. 10 μg/mL) of 104%. It also gave a viability at 72 h ([1]; drug conc. 50 μg/mL) of 93%, a viability at 72 h ([1]; drug conc. 200 μg/mL) of 84% and an IC50 (human DNA polymerase β) greater than 100 µM. For the same compound, the remaining activity at 100 µM (human DNA polymerase β) was 91 ± 4%, the IC50 (HV-6 polymerase) was 70 µM and the “effectiveness of TPFA relative to PFA” value (HV-6 polymerase; Herpes Virus 6 enzyme, ratio of ID50 values of Table I) was “more than seventy times less effective”. For the same compound, the “relative ID50 values with respect to HSV-1” value (HSV-1) was 9, the activity at 0.1 µg/mL (HIV-1 (HTLV-IIIB); [2]) was 139% and the activity at 0.5 µg/mL (HIV-1 (HTLV-IIIB); [2]) was 117%. It also gave an activity at 2 µg/mL (HIV-1 (HTLV-IIIB); [2]) of 90%, an activity at 10 µg/mL (HIV-1 (HTLV-IIIB); [2]) of 35% and an activity at 50 µg/mL (HIV-1 (HTLV-IIIB); [2]) of 0%. For the same compound, the activity at 200 µg/mL (HIV-1 (HTLV-IIIB); [2]) was -3%, the “Inhibition Score” value (HIV-1 (HTLV-IIIB); drug conc. 10 μg/mL) was “** (**25-49% control p24)” and the “Inhibition Score” value (HIV-1 (HTLV-IIIB); drug conc. 50 μg/mL) was “*** (***<25% control p24)”. For the same compound, the “Inhibition Score” value (HIV-1 (HTLV-IIIB); drug conc. 200 μg/mL) was “*** (***<25% control p24)”.
